Test results published in patent US7858637B2, “Administration of TLR7 ligands and prodrugs thereof for treatment of infection by hepatitis C virus” (priority 2003, dated 2010).
Where “and” joins values, the source holds several entries; their conditions need not be identical. Equal values may be shown once. Entries after “also recorded” stand apart in the source; their conditions may differ.

Columns and labels:
interferon alpha = assay: Interferon alpha plasma concentrations in mice; assay type: in vivo, mouse; details: for Mu-IFN-α plasma concentration, individual value / Mu-IFN-α plasma concentration, mean: mice
Description: Not only can one measure the plasma concentrations of isatoribine arising from oral administration of the said prodrug(s) but also the extensive immunological research conducted in the mouse has provided reagents suitable for measuring the levels of interferon alpha, a cytokine of interest reflecting one of the desired biologic activities of isatoribine.

HCV replicon = assay: HCV replicon-based viral bioassay with supernatants of compound-treated PBMC; assay type: cell-based, hepatitis C virus
Method: A quantitative assay was developed which is based on measuring the activity of the luciferase reporter gene that was integrated into an HCV replicon. By using this system, interferons from TLR7 agonist-treated PBMCs were measured and their inhibitory activity was assessed using the luciferase reporter replicon.
Human PBMCs isolated from a healthy donor were placed in replicate cell culture wells (5×10^6 cells per well). The PBMCs are incubated in the absence of test compounds at 37° C. in a humidified atmosphere containing 5% CO2 for 24 hours to allow stabilization to the culture conditions, and then the TLR7 ligand or a drug free control is added to replicate wells containing PBMCs from the same donor. The concentrations of TLR7 ligand may be varied to suit the particular experiment, and the PBMC cultures are then incubated at 37° C. in a humidified atmosphere containing 5% CO2 for eight hours. Samples of cell culture supernatant are taken at the eight hour time point (or twenty four hour time point in case of Loxoribine and its prodrugs) from TLR7 ligand treated and control wells and are assayed for interferon-alpha production by ELISA. Supernatants from compound-treated cells and a no-drug control were diluted at 1:10, 1:100, and 1:1000 in RPMI media and applied to a 96-well plate of Huh7 hepatocyte cells containing the luciferase reporter replicon. Cells were incubated for 48 hours at 37° C. in a tissue culture incubator.
After the incubation period, the 96-well plates are washed 2× with PBS and are lysed with passive lysis buffer (Promega). Plates are shaken at room temperature for 20 minutes and standard luciferase assay reagent (Promega) is added to each well by injection and the plate is read on an Lmax luminometer (Molecular Devices).
A supernatant collected from PBMC cells non-exposed to the compound and diluted as specified in the first column was used as a control (“Blank supernatant”). The PBMC cells were isolated from a single blood donor as specified.

HCV = HCV viral load reduction in patients, intravenous isatoribine; assay type: in vivo, human; details: 800 mg QD×7 days IV infusion
Method: All doses were administered by constant rate infusion over a 60-minute period, except the 800 mg dose was administered over an 80-minute period. The flow rate for each dose was as follows: 3.33 mL/min for the 200 mg dose; 6.67 mL/min for the 400 mg dose; 8.33 mL/min for the 500 mg dose; or 10.0 mL/min for the 600 mg and 800 mg dose. Four to twelve patients were enrolled in each of the dose groups (200 mg, 400 mg, 600 mg and 800 mg per dose) and received once daily intravenous infusions for 7 days. Prior to dosing, a blood sample was drawn from each patient for assessment of the genotype of the HCV virus. […] The viral load was measured by the branched DNA method ([…]3.0 bDNA assay, Bayer Diagnostics). For plasma HCV RNA, the maximum change from the pre-treatment baseline was estimated using log-transformed values.

[1] = one vehicle dose, one oral 50 mg/kg dose 4 hours later, time 4.03 h (second dose)
[2] = one vehicle dose, one oral 50 mg/kg dose 4 hours later, time 4.08 h (second dose)
[3] = one vehicle dose, one oral 50 mg/kg dose 4 hours later, time 4.25 h (second dose)
[4] = one vehicle dose, one oral 50 mg/kg dose 4 hours later, time 8.00 h (second dose)
[5] = two oral 50 mg/kg doses 4 hours apart, time 0.08 h (first dose)
[6] = two oral 50 mg/kg doses 4 hours apart, time 0.50 h (first dose)
[7] = two oral 50 mg/kg doses 4 hours apart, time 1.00 h (first dose)
[8] = two oral 50 mg/kg doses 4 hours apart, time 3.00 h (first dose)
[9] = two oral 50 mg/kg doses 4 hours apart, time 4.00 h (first dose)
[10] = two oral 50 mg/kg doses 4 hours apart, time 4.03 h (second dose)
[11] = two oral 50 mg/kg doses 4 hours apart, time 4.08 h (second dose)
[12] = two oral 50 mg/kg doses 4 hours apart, time 4.25 h (second dose)
[13] = two oral 50 mg/kg doses 4 hours apart, time 5.00 h (second dose)
[14] = two oral 50 mg/kg doses 4 hours apart, time 5.50 h (second dose)
[15] = two oral 50 mg/kg doses 4 hours apart, time 7.00 h (second dose)
[16] = oral dosing, data of Tables 15, 16 and 17

## Nc1nc2c(sc(=O)n2[C@@H]2O[C@H](CO)[C@@H](O)[C@H]2O)c(=O)[nH]1 [Compound 21, 7-thia-8-oxoguanosine]
Interferon alpha; [1]
  Mu-IFN-α plasma concentration, individual value: BQL^25 pg/mL
  Mu-IFN-α plasma concentration, mean: 0.00 pg/mL
Interferon alpha; [2]
  Mu-IFN-α plasma concentration, individual value: BQL^25 pg/mL
  Mu-IFN-α plasma concentration, mean: 0.00 pg/mL
Interferon alpha; [3]
  Mu-IFN-α plasma concentration, individual value: BQL^25 pg/mL
  Mu-IFN-α plasma concentration, mean: 0.00 pg/mL
Interferon alpha; one vehicle dose, one oral 50 mg/kg dose 4 hours later, time 4.50 h (second dose)
  Mu-IFN-α plasma concentration, mean: 44.4 pg/mL
Interferon alpha; one vehicle dose, one oral 50 mg/kg dose 4 hours later, time 4.50 h (second dose), listed as Isatoribine, 50 mg/kg
  Mu-IFN-α plasma concentration, individual value: BQL^100 pg/mL and BQL^25 pg/mL and 133.2 pg/mL
Interferon alpha; one vehicle dose, one oral 50 mg/kg dose 4 hours later, time 5.00 h (second dose)
  Mu-IFN-α plasma concentration, mean: 37.5 pg/mL
Interferon alpha; one vehicle dose, one oral 50 mg/kg dose 4 hours later, time 5.00 h (second dose), listed as Isatoribine, 50 mg/kg
  Mu-IFN-α plasma concentration, individual value: 74.9 pg/mL and BQL^50 pg/mL
Interferon alpha; one vehicle dose, one oral 50 mg/kg dose 4 hours later, time 5.50 h (second dose)
  Mu-IFN-α plasma concentration, mean: 0.00 pg/mL
Interferon alpha; one vehicle dose, one oral 50 mg/kg dose 4 hours later, time 5.50 h (second dose), listed as Isatoribine, 50 mg/kg
  Mu-IFN-α plasma concentration, individual value: BQL^250 pg/mL; also recorded: BQL^75 pg/mL; also recorded: BQL^25 pg/mL
Interferon alpha; one vehicle dose, one oral 50 mg/kg dose 4 hours later, time 6.00 h (second dose)
  Mu-IFN-α plasma concentration, mean: 0.00 pg/mL
Interferon alpha; one vehicle dose, one oral 50 mg/kg dose 4 hours later, time 6.00 h (second dose), listed as Isatoribine, 50 mg/kg
  Mu-IFN-α plasma concentration, individual value: BQL^25 pg/mL; also recorded: BQL^75 pg/mL
Interferon alpha; one vehicle dose, one oral 50 mg/kg dose 4 hours later, time 7.00 h (second dose)
  Mu-IFN-α plasma concentration, mean: 0.00 pg/mL
Interferon alpha; one vehicle dose, one oral 50 mg/kg dose 4 hours later, time 7.00 h (second dose), listed as Isatoribine, 50 mg/kg
  Mu-IFN-α plasma concentration, individual value: BQL^50 pg/mL; also recorded: BQL^25 pg/mL
Interferon alpha; [4]
  Mu-IFN-α plasma concentration, individual value: BQL^25 pg/mL
  Mu-IFN-α plasma concentration, mean: 0.00 pg/mL
Interferon alpha; two oral 50 mg/kg doses 4 hours apart, time 0.00 h (first dose)
  Mu-IFN-α plasma concentration, mean: 0.00 pg/mL
Interferon alpha; two oral 50 mg/kg doses 4 hours apart, time 0.00 h (first dose), listed as Isatoribine, 50 mg/kg
  Mu-IFN-α plasma concentration, individual value: BQL^50 pg/mL; also recorded: BQL^125 pg/mL
Interferon alpha; two oral 50 mg/kg doses 4 hours apart, time 0.03 h (first dose)
  Mu-IFN-α plasma concentration, mean: 0.00 pg/mL
Interferon alpha; two oral 50 mg/kg doses 4 hours apart, time 0.03 h (first dose), listed as Isatoribine, 50 mg/kg
  Mu-IFN-α plasma concentration, individual value: BQL^25 pg/mL; also recorded: BQL^250 pg/mL
Interferon alpha; [5]
  Mu-IFN-α plasma concentration, individual value: BQL^25 pg/mL
  Mu-IFN-α plasma concentration, mean: 0.00 pg/mL
Interferon alpha; two oral 50 mg/kg doses 4 hours apart, time 0.25 h (first dose)
  Mu-IFN-α plasma concentration, mean: 0.00 pg/mL
Interferon alpha; two oral 50 mg/kg doses 4 hours apart, time 0.25 h (first dose), listed as Isatoribine, 50 mg/kg
  Mu-IFN-α plasma concentration, individual value: BQL^50 pg/mL; also recorded: BQL^25 pg/mL
Interferon alpha; [6]
  Mu-IFN-α plasma concentration, individual value: BQL^25 pg/mL
  Mu-IFN-α plasma concentration, mean: 0.00 pg/mL
Interferon alpha; [7]
  Mu-IFN-α plasma concentration, individual value: BQL^25 pg/mL
  Mu-IFN-α plasma concentration, mean: 0.00 pg/mL
Interferon alpha; two oral 50 mg/kg doses 4 hours apart, time 1.50 h (first dose)
  Mu-IFN-α plasma concentration, mean: 0.00 pg/mL
Interferon alpha; two oral 50 mg/kg doses 4 hours apart, time 1.50 h (first dose), listed as Isatoribine, 50 mg/kg
  Mu-IFN-α plasma concentration, individual value: BQL^100 pg/mL; also recorded: BQL^25 pg/mL
Interferon alpha; two oral 50 mg/kg doses 4 hours apart, time 2.00 h (first dose)
  Mu-IFN-α plasma concentration, mean: 0.00 pg/mL
Interferon alpha; two oral 50 mg/kg doses 4 hours apart, time 2.00 h (first dose), listed as Isatoribine, 50 mg/kg
  Mu-IFN-α plasma concentration, individual value: BQL^25 pg/mL; also recorded: BQL^75 pg/mL
Interferon alpha; [8]
  Mu-IFN-α plasma concentration, individual value: BQL^25 pg/mL
  Mu-IFN-α plasma concentration, mean: 0.00 pg/mL
Interferon alpha; [9]
  Mu-IFN-α plasma concentration, individual value: BQL^25 pg/mL
  Mu-IFN-α plasma concentration, mean: 0.00 pg/mL
Interferon alpha; [10]
  Mu-IFN-α plasma concentration, individual value: BQL^25 pg/mL
  Mu-IFN-α plasma concentration, mean: 0.00 pg/mL
Interferon alpha; [11]
  Mu-IFN-α plasma concentration, individual value: BQL^25 pg/mL
  Mu-IFN-α plasma concentration, mean: 0.00 pg/mL
Interferon alpha; [12]
  Mu-IFN-α plasma concentration, individual value: BQL^25 pg/mL
  Mu-IFN-α plasma concentration, mean: 0.00 pg/mL
Interferon alpha; two oral 50 mg/kg doses 4 hours apart, time 4.50 h (second dose)
  Mu-IFN-α plasma concentration, mean: 0.00 pg/mL
Interferon alpha; two oral 50 mg/kg doses 4 hours apart, time 4.50 h (second dose), listed as Isatoribine, 50 mg/kg
  Mu-IFN-α plasma concentration, individual value: BQL^50 pg/mL; also recorded: BQL^37.5 pg/mL
Interferon alpha; [13]
  Mu-IFN-α plasma concentration, individual value: BQL^50 pg/mL
  Mu-IFN-α plasma concentration, mean: 0.00 pg/mL
Interferon alpha; [14]
  Mu-IFN-α plasma concentration, individual value: BQL^37.5 pg/mL
  Mu-IFN-α plasma concentration, mean: 0.00 pg/mL
Interferon alpha; two oral 50 mg/kg doses 4 hours apart, time 6.00 h (second dose)
  Mu-IFN-α plasma concentration, mean: 0.00 pg/mL
Interferon alpha; two oral 50 mg/kg doses 4 hours apart, time 6.00 h (second dose), listed as Isatoribine, 50 mg/kg
  Mu-IFN-α plasma concentration, individual value: BQL^50 pg/mL; also recorded: BQL^41.3 pg/mL; also recorded: BQL^37.5 pg/mL
Interferon alpha; [15]
  Mu-IFN-α plasma concentration, individual value: BQL^50 pg/mL
  Mu-IFN-α plasma concentration, mean: 0.00 pg/mL
Interferon alpha; two oral 50 mg/kg doses 4 hours apart, time 8.00 h (second dose)
  Mu-IFN-α plasma concentration, mean: 0.00 pg/mL
Interferon alpha; two oral 50 mg/kg doses 4 hours apart, time 8.00 h (second dose), listed as Isatoribine, 50 mg/kg
  Mu-IFN-α plasma concentration, individual value: BQL^50 pg/mL; also recorded: BQL^25 pg/mL
Interferon alpha; [16]
  mice with detectable interferon in their plasma: 4 of the 114
  proportion of mice exhibiting an interferon response: 4%
HCV replicon; Table 3 No. 1, PBMC exposed 8 hours to 100 μM, donor FL72035, supernatant dilution 1:100
  HCV replicon inhibition: 100%
HCV replicon; Table 3 No. 1, PBMC exposed 8 hours to 100 μM, donor FL72035, supernatant dilution 1:1000
  HCV replicon inhibition: 94%
HCV replicon; Table 3 No. 2, PBMC exposed 8 hours to 100 μM, donor FL75287, supernatant dilution 1:10
  HCV replicon inhibition: 100%
HCV replicon; Table 3 No. 2, PBMC exposed 8 hours to 100 μM, donor FL75287, supernatant dilution 1:100
  HCV replicon inhibition: 87%
HCV replicon; Table 3 No. 2, PBMC exposed 8 hours to 100 μM, donor FL75287, supernatant dilution 1:1000
  HCV replicon inhibition: 6%
HCV replicon; Table 3 No. 3, PBMC exposed 24 hours to 100 μM, donor FL75864, supernatant dilution 1:10
  HCV replicon inhibition: 100%
HCV replicon; Table 3 No. 3, PBMC exposed 24 hours to 100 μM, donor FL75864, supernatant dilution 1:100
  HCV replicon inhibition: 99%
HCV replicon; Table 3 No. 3, PBMC exposed 24 hours to 100 μM, donor FL75864, supernatant dilution 1:1000
  HCV replicon inhibition: 64%
HCV
  patients with plasma viral load decrease of more than 0.5 log 10 units: Eight of 12
HCV; 12 patients
  mean change in plasma viral load (HCV RNA) from baseline: −0.76 log 10 units
  range of change in plasma viral load (HCV RNA) from baseline: −2.85 to +0.21 log 10 units
